The values that follow come from US12441768B2, “Compositions and methods for treating endometriosis” (EndoMet Biosciences, Inc., priority 2018, dated 2025).

Where a SMILES comes first, the peptide text is derived from it. The star is where a group is joined. Bn = c1ccc(C*)cc1 Where only a bound is given, the exact number is not on record here.

For data set [1] the following is noted: % Viability non-Wnt responsive cells.
In data set [2] the target is Wnt-responsive promoter (TCF/LEF). Put plainly: Wnt-dependent luciferase reporter assay. The data set is classed as cell-based, murine. In a few lines: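 Murine 3T3 fibroblasts carrying a TCF/LEF-driven luciferase reporter, stimulated with Wnt3a in the presence of increasing peptide concentrations or vehicle. Luminescence inhibition gave EC50 values in uM.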
(In a reporter assay the amount or activity of a reporter protein is the signal.)

In data set [3] the target is T1, β-catenin (Homo sapiens, UniProt P35222).
T1 sequence (P35222 1-781): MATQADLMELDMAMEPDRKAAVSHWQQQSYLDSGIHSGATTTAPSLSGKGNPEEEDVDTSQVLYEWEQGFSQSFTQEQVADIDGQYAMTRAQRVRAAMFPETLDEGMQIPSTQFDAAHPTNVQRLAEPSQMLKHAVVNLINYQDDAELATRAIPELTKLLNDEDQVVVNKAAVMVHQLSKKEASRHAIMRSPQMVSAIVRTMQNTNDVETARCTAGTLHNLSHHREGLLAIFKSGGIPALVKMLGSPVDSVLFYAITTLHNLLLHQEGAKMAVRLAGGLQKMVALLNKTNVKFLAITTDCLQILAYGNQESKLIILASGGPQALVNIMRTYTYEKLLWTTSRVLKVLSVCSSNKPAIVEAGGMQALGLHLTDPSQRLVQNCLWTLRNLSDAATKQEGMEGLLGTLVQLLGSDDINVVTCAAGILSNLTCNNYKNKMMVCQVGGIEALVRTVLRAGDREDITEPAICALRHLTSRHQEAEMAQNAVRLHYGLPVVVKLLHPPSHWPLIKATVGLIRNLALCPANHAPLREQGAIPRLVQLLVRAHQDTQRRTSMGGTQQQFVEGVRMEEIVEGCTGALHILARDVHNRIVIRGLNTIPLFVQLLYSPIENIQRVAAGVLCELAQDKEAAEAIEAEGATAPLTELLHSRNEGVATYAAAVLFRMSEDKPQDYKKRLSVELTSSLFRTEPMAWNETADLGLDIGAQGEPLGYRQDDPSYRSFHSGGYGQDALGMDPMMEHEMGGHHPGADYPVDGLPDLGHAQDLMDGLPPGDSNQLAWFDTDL
Put plainly: KD50 measurement using competitive fluorescence polarization (FP) with labelled TCF4. In kind it is binding. The note with it: fluorescence polarization, β-catenin; for Kd: read-out: β-Cat FP KD. In a few lines: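 Each compound competes against labelled TCF4 (5 nM) for 100 nM β-catenin at room temperature, tested over 10 nM to 30 uM. Signal: polarization at 470/520 nm excitation/emission. Three repeat experiments were performed.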
Background: In fluorescence polarisation assays a small probe gives low polarisation when free and higher when bound to something large.

As to `CCCCCC[C@H](N)C(=O)N[C@@H](Cc1c[nH]c2ccccc12)C(=O)N[C@@H](Cc1ccccc1)C(=O)N[C@@H](CC(C)C)C(=O)N[C@H](C(=O)N[C@@H](CS)C(=O)N[C@@H](Cc1ccccc1)C(=O)N[C@@H](Cc1c[nH]c2ccccc12)C(=O)NCC(=O)O)[C@@H](C)CC` [compound 139] (HELM PEPTIDE1{[CCCCCC[C@H](N)C(=O)[*:2]].W.F.L.I.C.F.W.G}$$$$V2.0), the viability in data set [1] was 99.5%. Further, the EC50 in data set [2] is greater than 30 µM. Besides, the Kd in data set [3] was greater than 30 µM.
For the compound `CC[C@H](C)[C@H](NC(=O)[C@H](CC(C)C)NC(=O)[C@H](Cc1ccccc1)NC(=O)[C@H](Cc1c[nH]c2ccccc12)NC(=O)[C@H](Cc1c[nH]c2ccccc12)NC(=O)[C@H](CCCNC(=N)N)NC(=O)[C@H](CO)NC(=O)[C@@H](N)Cc1c[nH]c2ccccc12)C(=O)N[C@@H](CO)C(=O)N[C@@H](Cc1ccccc1)C(=O)N[C@@H](Cc1c[nH]c2ccccc12)C(N)=O` [compound 92] (H-WSRWWFLISFW-NH2), the viability in data set [1] stood at 87.8%. Besides, the EC50 in data set [2] lay within 15 to 22.5 µM. Also, in data set [3], the Kd is greater than 30 µM.
In the case of `CC[C@H](C)[C@H](NC(=O)[C@H](CC(C)C)NC(=O)[C@H](Cc1ccccc1)NC(=O)[C@@H](N)Cc1c[nH]c2ccccc12)C(=O)N[C@@H](CO)C(=O)N[C@@H](COCc1ccccc1)C(=O)N[C@@H](Cc1c[nH]c2ccccc12)C(=O)O` [compound 101] (H-WFLISS(Bn)W-OH), the viability in data set [1] is 106%. In addition, in data set [2], the EC50 was in the range of 7.5 to 15 µM. Further, in data set [3], the “β-Cat FP Hill slope” value is given as 3 and the Kd was in the range of 1 to 10 µM.
Consider `CC[C@H](C)[C@H](NC(=O)[C@H](CC(C)C)NC(=O)[C@H](Cc1ccccc1)NC(=O)[C@H](Cc1c[nH]c2ccccc12)NC(C)=O)C(=O)N[C@@H](CS)C(=O)N[C@@H](Cc1ccccc1)C(=O)N[C@@H](Cc1c[nH]c2ccccc12)C(=O)NCC(=O)O` [compound 194] (Ac-WFLICFWG-OH), for which, in data set [1], the viability amounted to 106%. In data set [2], this compound returned an EC50 of less than 7.5 µM. In data set [3], the “β-Cat FP Hill slope” value is listed as 3 and the Kd is 0.4 to 1 µM.
`CC[C@H](C)[C@H](NC(=O)[C@H](CC(C)C)NC(=O)[C@H](Cc1ccccc1)NC(=O)[C@H](Cc1c[nH]c2ccccc12)NC(=O)[C@H](CCCNC(=N)N)NC(=O)[C@H](CCCNC(=N)N)NC(=O)[C@H](CO)NC(=O)[C@@H](N)CCSC)C(=O)N[C@@H](CO)C(=O)N[C@@H](Cc1ccccc1)C(=O)N[C@@H](Cc1c[nH]c2ccccc12)C(N)=O` [compound 75] (H-MSRRWFLISFW-NH2): in data set [1], the viability came to 99.2%. The compound further gave an EC50 in data set [2] greater than 30 µM. Also, the Kd in data set [3] is greater than 30 µM.
In the case of `CC[C@H](C)[C@H](NC(=O)[C@H](CC(C)C)NC(=O)[C@@H](NC(=O)[C@H](Cc1c[nH]c2ccccc12)NC(C)=O)[C@@H](C)CC)C(=O)N[C@@H](CO)C(=O)N[C@@H](Cc1ccccc1)C(=O)N[C@@H](Cc1c[nH]c2ccccc12)C(=O)NCC(=O)O` [compound 195] (Ac-WILISFWG-OH), the viability in data set [1] turned out to be 105%. Moreover, in data set [2], the EC50 was less than 7.5 µM. In data set [3], the “β-Cat FP Hill slope” value amounted to 3 and the Kd was less than 0.4 µM.
For `CC[C@H](C)[C@H](NC(=O)[C@H](CC(C)C)NC(=O)[C@@H](NC(=O)[C@H](Cc1c[nH]c2ccccc12)NC(=O)[C@H](CCSC)NC(C)=O)[C@@H](C)CC)C(=O)N[C@@H](CO)C(=O)N[C@@H](Cc1ccccc1)C(=O)N[C@@H](Cc1c[nH]c2ccccc12)C(=O)NCC(=O)O` [compound 165] (Ac-MWILISFWG-OH), in that order: 102%, less than 7.5 µM, 2.99 and less than 0.4 µM.
For `CC[C@H](C)[C@@H]1NC(=O)[C@H](CC(C)C)NC(=O)[C@H](Cc2ccccc2)NC(=O)[C@H](Cc2c[nH]c3ccccc23)NC(=O)[C@@H](N)CC(=O)NCCCC[C@@H](C(=O)NCC(=O)O)NC(=O)[C@H](Cc2c[nH]c3ccccc23)NC(=O)[C@H](Cc2ccccc2)NC(=O)[C@H](CS)NC1=O` [compound 176] (HELM PEPTIDE1{D.W.F.L.I.C.F.W.K.G}$PEPTIDE1,PEPTIDE1,1:R3-9:R3$$$V2.0), in that order: 109%, 7.5 to 15 µM, 0.85 and 10 to 30 µM.
In the case of `CCC[C@H](N)C(=O)N[C@@H](Cc1c[nH]c2ccccc12)C(=O)N[C@@H](Cc1ccccc1)C(=O)N[C@@H](CC(C)C)C(=O)N[C@H](C(=O)N[C@@H](CS)C(=O)N[C@@H](Cc1ccccc1)C(=O)N[C@@H](Cc1c[nH]c2ccccc12)C(=O)NCC(=O)O)[C@@H](C)CC` [compound 141] (HELM PEPTIDE1{[Nva].W.F.L.I.C.F.W.G}$$$$V2.0), the viability in data set [1] is 100%. The EC50 in data set [2] lay within 7.5 to 15 µM. Moreover, the dissociation constant (Kd) in data set [3] is greater than 30 µM.
Take `CC[C@H](C)[C@H](NC(=O)[C@H](CC(C)C)NC(=O)[C@@H](NC(=O)[C@H](Cc1c[nH]c2ccccc12)NC(=O)[C@@H](N)CCCCN)[C@@H](C)CC)C(=O)N[C@@H](CO)C(=O)N[C@@H](Cc1ccccc1)C(=O)N[C@@H](Cc1c[nH]c2ccccc12)C(=O)NCC(=O)O` [compound 125] (H-KWILISFWG-OH): in data set [1], the viability is 113%. Further, the EC50 in data set [2] lay in the range of 22.5 to 30 µM. Also, in data set [3], the “β-Cat FP Hill slope” value amounted to 0.7 and the Kd lay in the range of 0.4 to 1 µM.
For `CC[C@H](C)[C@@H]1NC(=O)[C@H](CC(C)C)NC(=O)[C@H](Cc2ccccc2)NC(=O)[C@H](Cc2c[nH]c3ccccc23)NC(=O)[C@@H](NC(C)=O)CCCCNC(=O)CC[C@@H](C(=O)O)NC(=O)[C@H](Cc2c[nH]c3ccccc23)NC(=O)[C@H](Cc2ccccc2)NC(=O)[C@H](CO)NC1=O` [compound 199] (HELM PEPTIDE1{[ac].K.W.F.L.I.S.F.W.E}$PEPTIDE1,PEPTIDE1,2:R3-10:R3$$$V2.0), in data set [1], the viability was determined as 89.8%. The EC50 in data set [2] was less than 7.5 µM. Moreover, in data set [3], the “β-Cat FP Hill slope” value stood at 0.7 and the Kd lay in the range of 0.4 to 1 µM.
For `CC[C@H](C)[C@@H]1NC(=O)[C@H](CC(C)C)NC(=O)[C@H](Cc2ccccc2)NC(=O)[C@H](Cc2c[nH]c3ccccc23)NC(=O)[C@@H](N)CCCCNC(=O)CNC(=O)C[C@@H](C(=O)O)NC(=O)[C@H](Cc2c[nH]c3ccccc23)NC(=O)[C@H](C)NC(=O)[C@H](CS)NC1=O` [compound 207] (HELM PEPTIDE1{K.W.F.L.I.C.A.W.[O=C(O)[C@H](CC(=O)[*:2])N[*:1]].G}$PEPTIDE1,PEPTIDE1,1:R3-10:R2$$$V2.0), in that order: 107%, less than 7.5 µM, 0.7 and 0.4 to 1 µM.
For `CC[C@H](C)[C@@H]1NC(=O)[C@H](CC(C)C)NC(=O)[C@H]([C@@H](C)CC)NC(=O)[C@H](Cc2c[nH]c3ccccc23)NC(=O)[C@@H](N)CCCCNC(=O)CC[C@@H](C(=O)O)NC(=O)[C@H](Cc2c[nH]c3ccccc23)NC(=O)[C@H](Cc2ccccc2)NC(=O)[C@H](CO)NC1=O` [compound 182] (HELM PEPTIDE1{K.W.I.L.I.S.F.W.E}$PEPTIDE1,PEPTIDE1,1:R3-9:R3$$$V2.0), in that order: 95.3%, 22.5 to 30 µM, 1.06 and 0.4 to 1 µM.
The like results for `CC[C@H](C)[C@H](NC(=O)[C@H](CC(C)C)NC(=O)[C@H](Cc1ccccc1)NC(=O)[C@@H](N)Cc1c[nH]c2ccccc12)C(=O)N[C@@H](CO)C(=O)N[C@H](C(=O)N[C@@H](Cc1c[nH]c2ccccc12)C(=O)O)[C@@H](C)O` [compound 103] (H-WFLISTW-OH) were, in that order, 102%, 15 to 22.5 µM, 1.71 and 1 to 10 µM.
As to `CCCC[C@H](N)C(=O)N[C@@H](Cc1c[nH]c2ccccc12)C(=O)N[C@@H](Cc1ccccc1)C(=O)N[C@@H](CC(C)C)C(=O)N[C@H](C(=O)N[C@@H](CS)C(=O)N[C@@H](Cc1ccccc1)C(=O)N[C@@H](Cc1c[nH]c2ccccc12)C(=O)NCC(=O)O)[C@@H](C)CC` [compound 164] (HELM PEPTIDE1{[Nle].W.F.L.I.C.F.W.G}$$$$V2.0), in data set [1], the viability amounted to 100%. In data set [2], the EC50 is less than 7.5 µM. Further, in data set [3], the “β-Cat FP Hill slope” value came out at 0.7 and the Kd fell in the range of 0.4 to 1 µM.
`CC[C@H](C)[C@H](NC(=O)[C@H](CC(C)C)NC(=O)[C@H](Cc1ccccc1)NC(=O)[C@H](Cc1c[nH]c2ccccc12)NC(=O)[C@H](CCCCN)NC(=O)[C@H](CCCNC(=N)N)NC(=O)[C@H](CO)NC(=O)[C@@H](N)CCSC)C(=O)N[C@@H](CO)C(=O)N[C@@H](Cc1ccccc1)C(=O)N[C@@H](Cc1c[nH]c2ccccc12)C(=O)NCC(=O)O` [compound 59] (H-MSRKWFLISFWG-OH): in data set [1], the viability stood at 102%. Also, in data set [2], the EC50 was greater than 30 µM. Moreover, in data set [3], the Kd is greater than 30 µM.

By viability is commonly meant a read-out of living cells in per cent, often relative to untreated cells. The term EC50 denotes the concentration that produces a half-maximal response. One may read the Kd as the concentration at which binding is half-saturated.
